pIC50: −log10 of the molar value.

From patent US8674113B2, “Compounds” (Boehringer Ingelheim International GmbH, priority 2010, dated 2014) come the findings set out here.

mPGES-1 in A549 cells, sequence (O14684 whole entry): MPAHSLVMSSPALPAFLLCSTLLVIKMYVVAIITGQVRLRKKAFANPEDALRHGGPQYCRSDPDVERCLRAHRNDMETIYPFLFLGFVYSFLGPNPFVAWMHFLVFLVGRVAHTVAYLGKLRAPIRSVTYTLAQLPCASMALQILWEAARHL

For the first assay, the target named is mPGES-1 in A549 cells (Homo sapiens (Human), UniProt O14684). Description: A549 cell-based assay (PGE2 formation, 50% human serum). Particulars: IL-1β 5 ng/ml, 10 nM arachidonic acid, 20-24 h, read-out: mPGES-1 inhibitory effect IC50 in the cell assay. On the procedure:
Although the enzymatic assay is a high throughput assay the disadvantage is that it uses a recombinant protein which is not in its natural environment. Accordingly a cellular assay was established in which a cell line of human origin (A549) expressing the mPGES-1 protein was used. In addition in order to mimic the situation in humans in which compounds can be bound to plasma proteins 50% human serum is added in the assay.
A549 cells (ATCC: CCL-185) are grown to about 90% confluence in F-12K Nutrient Mixture (Kaighn's Mod. Gibco) containing 10% FBS in a humified incubator at 37° C. and 5% CO2. Cells were detached using Trypsin-EDTA. A549 cells were seeded in a 384-well collagene plate at a density of 7000 cells/well (50 μl) in F-12 medium containing 1% Penicillin-Streptomycin and 50% human serum. The cells were allowed to attach for 3-4 h. After that the cells were incubated for 20-24 h in F-12k medium supplemented with 50% human serum, 1% Penicillin-Streptomycin and containing IL-1β at a final concentration of 5 ng/ml as well as 10 nM arachidonic acid in the presence of a vehicle or a test compound. The total volume is 100 μl.
Concentrations of PGE2 in the cell free medium (10 μl) were measured using a commercially available HTRF kit from Cisbio (as described above). The PGE2 formation in the absence of test compound was taken as 100%.
IC50 values were derived from at 6-8 point titrations using conventional software.
The pIC50 is the negative decadic logarithm of the IC50, by convention in mol/L. On to `Cn1c(Nc2c(Cl)ccc(CNC(=O)C(C)(C)C)c2Cl)nc2cc(C(=O)N[C@H]3CC[C@H](C(F)(F)F)CC3)c(N3CCC(F)(F)C3)cc21` [Example 20, N-(trans-4-Trifluoromethyl-cyclohexyl)-2-{2,6-dichloro-3-[(2,2-dimethyl-propionylamino)-methyl]-phenylamino}-6-[3,3-difluoro-pyrrolidinyl]-1-methyl-1H-benzimidazole-5-carboxylic acid amide], for which the pIC50 was 9.00.

As to `Cn1c(Nc2c(Cl)ccc(CNC(=O)C(C)(C)F)c2Cl)nc2cc(C(=O)NCC(F)(F)C(F)(F)F)c(N3CCOCC3)cc21` [Example 153], the pIC50 was 8.34.

Regarding `Cn1c(Nc2c(Cl)ccc(CNC(=O)c3cnc(N)s3)c2Cl)nc2cc(C(=O)N[C@H]3CC[C@H](C(F)(F)F)CC3)c(N3CC4CC4C3)cc21` (stereo partly shown) [Example 226], the pIC50 is 7.01.

Regarding `Cn1c(Nc2c(Cl)ccc(CNC(=O)c3n[nH]c4c3CCC4)c2Cl)nc2cc(C(=O)NCCC(F)(F)F)c(N3CCC(C(F)(F)F)CC3)cc21` [Example 183], the pIC50 was less than 7.00.

With `Cn1c(Nc2c(Cl)ccc(CNC(=O)[C@@](C)(O)C(F)(F)F)c2Cl)nc2cc(C(=O)N[C@H]3CC[C@H](C(F)(F)F)CC3)c(N3CC4CC4C3)cc21` (stereo partly shown) [Example 192], the pIC50 is 9.00.

Regarding `Cn1c(Nc2c(Cl)ccc(CNC(=O)c3cc(C#N)ccn3)c2Cl)nc2cc(C(=O)N[C@H]3CC[C@H](C(F)(F)F)CC3)c(N3CC4CC4C3)cc21` (stereo partly shown) [Example 209], the pIC50 is 8.19.

Regarding `COc1cncc(C(=O)NCc2ccc(Cl)c(Nc3nc4cc(C(=O)N[C@H]5CC[C@H](C(F)(F)F)CC5)c(N5CC6CC6C5)cc4n3C)c2Cl)n1` (stereo partly shown) [Example 213], the pIC50 was 7.39.

For the molecule `CC(C)(C)C(=O)NCc1ccc(Cl)c(Nc2nc3cc(C(=O)N[C@H]4CC[C@H](C(F)(F)F)CC4)c(N4CCC(C(F)(F)F)CC4)cc3n2CCC(N)=O)c1Cl` [Example 171], the pIC50 is 8.22.

For `Cn1c(Nc2c(Cl)ccc(CNC(=O)C(C)(C)F)c2Cl)nc2cc(C(=O)N[C@H]3CC[C@H](C(F)(F)F)CC3)c(N3CC4CC4C3)cc21` (stereo partly shown) [Example 191], the negative-log IC50 (pIC50) was 8.70.

As to `Cn1c(Nc2c(Cl)ccc(CNC(=O)[C@@](C)(O)C(F)(F)F)c2Cl)nc2cc(C(=O)N[C@H]3CC[C@H](C(F)(F)F)CC3)c(N3CC4CC4C3)cc21` (stereo partly shown) [Example 193], the pIC50 is 8.60.

On to `CC(C)(C)C(=O)NCc1ccc(Cl)c(Nc2nc3cc(C(=O)N[C@H]4CC[C@H](C(F)(F)F)CC4)c(N4CCOCC4)cc3n2CCC(N)=O)c1Cl` [Example 170], for which the pIC50 is 6.96.

Take `Cn1c(Nc2c(Cl)ccc(CNC(=O)C(C)(C)C)c2F)nc2cc(C(=O)N[C@H]3CC[C@H](C(F)(F)F)CC3)c(N3CCC(C(F)(F)F)C3)cc21` (stereo partly shown) [Example 6]: the pIC50 is 8.40.

With `Cn1c(Nc2c(Cl)ccc(CNC(=O)c3cc(O)[nH]n3)c2Cl)nc2cc(C(=O)N[C@H]3CC[C@H](C(F)(F)F)CC3)c(N3CC4CC4C3)cc21` (stereo partly shown) [Example 218], the pIC50 was 7.01.

With `CC(C)(F)C(=O)NCc1ccc(Cl)c(Nc2nc3cc(C(=O)NCCC(F)(F)F)c(N4CCC(C(F)(F)F)CC4)cc3n2C(C)(C)CO)c1Cl` [Example 269], the pIC50 was 7.26.

Take `CNc1cc(C(=O)NCc2ccc(Cl)c(Nc3nc4cc(C(=O)N[C@H]5CC[C@H](C(F)(F)F)CC5)c(N5CC6CC6C5)cc4n3C)c2Cl)ccn1` (stereo partly shown) [Example 203]: the pIC50 was 7.34.

With `Cc1ccc(C(=O)NCc2ccc(Cl)c(Nc3nc4cc(C(=O)N[C@H]5CC[C@H](C(F)(F)F)CC5)c(N5CC6CC6C5)cc4n3C)c2Cl)nc1C` (stereo partly shown) [Example 199], the pIC50 is 8.10.

With `Cn1c(Nc2c(Cl)ccc(CNC(=O)C(C)(C)C)c2Cl)nc2cc(C(=O)NCC(F)(F)C(F)(F)F)c(N3CCC(F)CC3)cc21` [Example 151], the pIC50 is 8.85.

As for `Cc1n[nH]c(CN(C)c2cc3c(cc2C(=O)N[C@H]2CC[C@H](C(F)(F)F)CC2)nc(Nc2c(Cl)ccc(CNC(=O)C(C)(C)F)c2Cl)n3C)n1` [Example 115], the pIC50 is 8.70.

On to `Cn1c(Nc2c(Cl)ccc(CNC(=O)C(C)(C)CO)c2Cl)nc2cc(C(=O)N[C@H]3CC[C@H](C(F)(F)F)CC3)c(N3CC4CC4C3)cc21` (stereo partly shown) [Example 194], for which the pIC50 is 8.68.

For `Cc1ccnc(C(=O)NCc2ccc(Cl)c(Nc3nc4cc(C(=O)N[C@H]5CC[C@H](C(F)(F)F)CC5)c(N5CC6CC6C5)cc4n3C)c2Cl)c1` (stereo partly shown) [Example 196], the pIC50 is 8.05.

For the molecule `Cn1nc(C(=O)NCc2ccc(Cl)c(Nc3nc4cc(C(=O)NCCC(F)(F)F)c(N5CCC(C(F)(F)F)CC5)cc4n3C)c2Cl)cc1N` [Example 180], the pIC50 was less than 7.00.

On to `COc1cccc(C(=O)NCc2ccc(Cl)c(Nc3nc4cc(C(=O)N[C@H]5CC[C@H](C(F)(F)F)CC5)c(N5CC6CC6C5)cc4n3C)c2Cl)n1` (stereo partly shown) [Example 204], for which the pIC50 was 7.31.

`Cc1n[nH]c(CN(C)c2cc3c(cc2C(=O)Nc2ccc(OC(F)(F)F)cc2)nc(Nc2c(Cl)ccc(CNC(=O)C(C)(C)F)c2Cl)n3C)n1` [Example 143]: the negative-log IC50 (pIC50) was 8.59.

Consider `Cn1cncc1C(=O)NCc1ccc(Cl)c(Nc2nc3cc(C(=O)N[C@H]4CC[C@H](C(F)(F)F)CC4)c(N4CC5CC5C4)cc3n2C)c1Cl` (stereo partly shown) [Example 217], for which the pIC50 was less than 7.00.

Regarding `Cn1c(Nc2c(Cl)ccc(CNC(=O)c3cc[nH]n3)c2Cl)nc2cc(C(=O)N[C@H]3CC[C@H](C(F)(F)F)CC3)c(N3CC4CC4C3)cc21` (stereo partly shown) [Example 230], the pIC50 is 7.40.

For the molecule `Cn1c(Nc2c(Cl)ccc(CNC(=O)c3csc(N)n3)c2Cl)nc2cc(C(=O)N[C@H]3CC[C@H](C(F)(F)F)CC3)c(N3CC4CC4C3)cc21` (stereo partly shown) [Example 229], the pIC50 is 8.34.

Consider `Cn1c(Nc2c(Cl)ccc(CNC(=O)C(C)(C)F)c2Cl)nc2cc(C(=O)N[C@H]3CC[C@H](C(F)(F)F)CC3)c(N3CCC4(CC3)CC4)cc21` [Example 123], for which the pIC50 was 9.00.

On to `Cn1c(Nc2c(Cl)ccc(CNC(=O)C(C)(C)O)c2Cl)nc2cc(C(=O)N[C@H]3CC[C@H](C(F)(F)F)CC3)c(N3CC4CC4C3)cc21` (stereo partly shown) [Example 190], for which the pIC50 was 8.05.

On to `CC(C)(C)C(=O)NCc1ccc(Cl)c(Nc2nc3cc(C(=O)Nc4ccc(OC(F)(F)F)cc4)c(N4CCC(C(F)(F)F)CC4)cc3n2CCC(N)=O)c1Cl` [Example 169], for which the pIC50 was 8.30.

`Cc1cc(C(=O)NCc2ccc(Cl)c(Nc3nc4cc(C(=O)N[C@H]5CC[C@H](C(F)(F)F)CC5)c(N5CC6CC6C5)cc4n3C)c2Cl)no1` (stereo partly shown) [Example 223]: the pIC50 is 7.92.

For `Cc1nc(C)c(C(=O)NCc2ccc(Cl)c(Nc3nc4cc(C(=O)N[C@H]5CC[C@H](C(F)(F)F)CC5)c(N5CC6CC6C5)cc4n3C)c2Cl)s1` (stereo partly shown) [Example 227], the pIC50 was 7.37.

On to `CN(Cc1nnc[nH]1)c1cc2c(cc1C(=O)N[C@H]1CC[C@H](C(F)(F)F)CC1)nc(Nc1c(Cl)ccc(CNC(=O)C(C)(C)C)c1Cl)n2C` [Example 114], for which the pIC50 was 8.46.

In the case of `CC(C)(C)C(=O)NCc1ccc(Cl)c(Nc2nc3cc(C(=O)Nc4ccc(OC(F)(F)F)cc4)c(N4CC[C@@H](F)C4)cc3n2CC(F)F)c1Cl` [Example 77, (R)—N-(4-Trifluoromethoxy-phenyl)-2-{2,6-dichloro-3-[(2,2-dimethyl-propionylamino)-methyl]-phenylamino}-6-[3-fluoro-pyrrolidinyl]-1-(2,2-difluorethyl)-1H-benzimidazole-5-carboxylic acid amide], the pIC50 was 8.70.

On to `Cn1c(Nc2c(Cl)ccc(CNC(=O)c3ccc(C#N)nc3)c2Cl)nc2cc(C(=O)N[C@H]3CC[C@H](C(F)(F)F)CC3)c(N3CC4CC4C3)cc21` (stereo partly shown) [Example 212], for which the pIC50 was 8.77.

For `Cn1c(Nc2c(Cl)ccc(CNC(=O)c3c[nH]cn3)c2Cl)nc2cc(C(=O)N[C@H]3CC[C@H](C(F)(F)F)CC3)c(N3CC4CC4C3)cc21` (stereo partly shown) [Example 220], the pIC50 was 6.92.

Regarding `Cn1c(Nc2c(Cl)ccc(CNC(=O)C(C)(C)C)c2Cl)nc2cc(C(=O)NC3CC(F)(F)C3)c(NCC(F)F)cc21` [Example 16], the pIC50 is 6.71.

Regarding `Cc1cc(C(=O)NCc2ccc(Cl)c(Nc3nc4cc(C(=O)N[C@H]5CC[C@H](C(F)(F)F)CC5)c(N5CC6CC6C5)cc4n3C)c2Cl)nn1C` (stereo partly shown) [Example 219], the pIC50 is less than 7.00.

Consider `Cn1c(Nc2c(Cl)ccc(CNC(=O)C(C)(C)C)c2Cl)nc2cc(C(=O)N[C@H]3CC[C@H](C(F)(F)F)CC3)c(N3CCC(C(F)(F)F)CC3)cc21` [Example 52, N-(trans-4-Trifluoromethyl-cyclohexyl)-2-{2,6-dichloro-3-[(2,2-dimethyl-propionylamino)-methyl]-phenylamino}-6-[4-trifluoromethyl-piperidinyl]-1-methyl-1H-benzimidazole-5-carboxylic acid amide], for which the pIC50 is more than 9.00.

The assay is the same for the next values; noted with them: Table C comparison of selected benzimidazoles, read-out: Cell IC50.
For the molecule `Cn1c(Nc2c(Cl)ccc(CNC(=O)C(C)(C)C)c2Cl)nc2cc(C(=O)N[C@H]3CC[C@H](C(F)(F)F)CC3)c(N3CCC(F)(F)C3)cc21` [Example 20, N-(trans-4-Trifluoromethyl-cyclohexyl)-2-{2,6-dichloro-3-[(2,2-dimethyl-propionylamino)-methyl]-phenylamino}-6-[3,3-difluoro-pyrrolidinyl]-1-methyl-1H-benzimidazole-5-carboxylic acid amide], the pIC50 is 9.00.

The same assay, now with this note: mPGES-1 inhibitory effect IC50 in the cell assay, IL-1β 5 ng/ml, 10 nM arachidonic acid, 20-24 h.
As for `CC(C)(C)C(=O)NCc1ccc(Cl)c(Nc2nc3cc(C(=O)N[C@H]4CC[C@H](C(F)(F)F)CC4)c(N4CCOCC4)cc3n2CC(F)F)c1Cl` [Example 71, N-(trans-4-Trifluoromethyl-cyclohexyl)-2-{2,6-dichloro-3-[(2,2-dimethyl-propionylamino)-methyl]-phenylamino}-6-[morpholin-1-yl]-(2,2-difluoroethyl)-benzimidazole-5-carboxylic acid amide], the pIC50 is more than 9.00.
